Measured values published in US20190192697A1, “CHEMICAL PROBES OF LYSYL OXIDASK-LIKE 2 AND USES THEREOF” (PHARMAKEA, INC., priority 2016, published 2019).
Structures can show the parent of a compound that is named as a salt.

Key:
[1] = biological target: T1, LOXL2 (Homo sapiens, UniProt Q9Y4K0); assay: Western-based quantification of free LOXL2 captured with biotinylated LOXL2 inhibitor (Compound 1-1); type: binding; details: pre-incubation with 1-13a 1-2 hrs at 37° C., capture with Compound 1-1
T1 sequence (Q9Y4K0 26-774): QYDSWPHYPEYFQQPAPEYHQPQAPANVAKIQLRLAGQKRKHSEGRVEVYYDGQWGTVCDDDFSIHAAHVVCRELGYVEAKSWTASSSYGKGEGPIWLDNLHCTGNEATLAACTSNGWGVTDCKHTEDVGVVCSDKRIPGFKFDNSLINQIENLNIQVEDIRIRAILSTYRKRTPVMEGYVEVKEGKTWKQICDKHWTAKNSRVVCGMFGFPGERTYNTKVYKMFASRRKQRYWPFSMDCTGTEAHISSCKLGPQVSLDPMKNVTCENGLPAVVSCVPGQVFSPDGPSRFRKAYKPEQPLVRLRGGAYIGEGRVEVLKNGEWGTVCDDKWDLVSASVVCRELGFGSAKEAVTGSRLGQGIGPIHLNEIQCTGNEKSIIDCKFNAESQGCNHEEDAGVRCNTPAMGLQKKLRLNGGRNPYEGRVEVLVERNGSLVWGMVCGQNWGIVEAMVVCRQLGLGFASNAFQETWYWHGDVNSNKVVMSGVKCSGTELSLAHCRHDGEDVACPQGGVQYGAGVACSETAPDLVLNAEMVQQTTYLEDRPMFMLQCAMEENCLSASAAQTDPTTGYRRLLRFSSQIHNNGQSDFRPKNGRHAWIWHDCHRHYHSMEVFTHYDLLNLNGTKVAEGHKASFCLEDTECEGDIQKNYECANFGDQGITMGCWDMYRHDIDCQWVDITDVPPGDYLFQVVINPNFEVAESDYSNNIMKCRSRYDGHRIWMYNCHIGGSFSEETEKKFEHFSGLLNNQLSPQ
Procedure: To quantify LOXL2 using a Western-based assay, a suitable amount of the LOXL2 inhibitor 1-13a, such as 10 or DMSO was pre-incubated with a suitable amount of LOXL2, such as 1 ng, 10 ng, or 100 ng, for a suitable amount of time at an appropriate temperature, such as 1-2 hrs at 37° C. Then an appropriate amount of the biotinylated labeled LOXL2 inhibitor (Compound 1-1), such as 5, was added and was allowed to incubate with the LOXL2 for a suitable amount of time at an appropriate temperature, such as 1 hr at 37° C. Then the biotinylated labeled LOXL2 inhibitor (Compound 1-1)/LOXL2 complex was isolated with Streptavidin coated magnetic beads. After incubation with the streptavidin magnetic beads for an appropriate amount of time, a magnet (for example, DynaMag™-2 Magnet) was used to capture the biotinylated labeled LOXL2 inhibitor (Compound 1-1)/LOXL2 bead bound complex and the supernatant was removed. […]
A Western Blot is then performed with an anti-LOXL2 antibody to quantify the amount of LOXL2 bound to the biotinylated LOXL2 inhibitor (Compound 1-1).

[2] = biological target: T1, LOXL2; assay: Western-based magnetic bead assay for free/unbound LOXL2 in human plasma pre-incubated with compound; type: binding; parameters: from tissue; host or cells: human plasma (donors / healthy volunteers); details: 10 mL human plasma, 2 hours at 37° C., capture with FG beads (Compound 1-7)
Procedure: Beads are resuspended to 10 mg/mL in Wash Buffer (20 mM Tris pH 8, 0.2% NP-40, 120 mM NaCl) and 1 mg beads (100 μL) are added to 1-10 mL of plasma, serum or other biological fluid containing LOXL2 and incubated at 37° C. for 0.5-2 hours with rotation. Beads are separated from plasma or other matrix using magnetic separation (for example, DynaMag™-15 Magnet) for 10 minutes at room temperature then the plasma/matrix carefully removed. The beads are resuspended in 1 mL Wash Buffer, vortexed and centrifuged at 4500×g for 5 minutes at room temperature to move all beads to the bottom of the tube. Beads are transferred to a 1.5 mL microfuge tube and washed 3 times with Wash Buffer using magnetic separation (for example, DynaMag™-2 Magnet). After the final wash, beads are resuspended in 40 μL of 1× BOLT® LDS Sample Buffer (Thermo Fisher, Waltham, Mass.) containing 1× BOLT® Sample Reducing Agent (Thermo Fisher, Waltham, Mass.) and incubated for 10 minutes at 90° C. Samples are centrifuged at 10,000×g for 1 minute then magnetically separated using a DynaMag™-2 Magnet for 2 minutes. 40 μL of each supernatant is loaded into one well of a 10 well 4-12% Bis-Tris Plus gel (Thermo Fisher, Waltham, Mass.) and the gels run for 45 minutes at 164 volts in 1×MES SDS Running Buffer (Thermo Fisher, Waltham, Mass.). […]

With `NCc1cc(Oc2cccc(C(=O)N3C[C@@H](O)[C@H](F)C3)c2)nc(C(F)(F)F)c1` [Compound 1-13a, (R,R)-trans-(3-((4-(Aminomethyl)-6-(trifluoromethyl)pyridin-2-yl)oxy)phenyl)(3-fluoro-4-hydroxypyrrolidin-1-yl)methanone hydrochloride] the “reduction of unbound/free LOXL2 captured by the biotinylated LOXL2 inhibitor” value [1] was 70-100%, the “decrease of free/unbound LOXL2 relative to vehicle control” value ([2]; 1 μM) was “approximately 63%” and the “decrease of free/unbound LOXL2 relative to vehicle control” value ([2]; 10 μM) was roughly 100%.
